Measured values published in ChEMBL document CHEMBL5131386, “Synthesis and biological evaluation of novel schisanhenol derivatives as potential hepatoprotective agents” (Eur J Med Chem, 2022).
Calls of active or inactive are those of the source. No cut-off for these calls is given here.

What was measured:
L02 [1] = test: Hepatoprotective activity against concanavalin A induced liver injury in human HL7702 cells assessed as cell survival rate at 5 uM preincubated for 12 hrs followed by concanavalin A stimulation for 12 hrs by MTT assay (reference value: 51.37%); format: functional; conditions: time 24 hrs, read-out: Survival
L02 [2] = test: Cytotoxicity against human HL7702 cells ssessed as cell survival rate at 5 uM for 12 hrs by MTT assay; format: toxicity, cell-based; conditions: l02, 12 h
L02 [3] = test: Hepatoprotective activity against concanavalin A induced human HL7702 cell apoptosis assessed as increase in Bcl-2 expression level at 5 uM preincubated for 12 hrs followed by concanavalin A stimulation for 12 hrs by Western blot analysis; format: functional, cell-based; conditions: time 24.0 hrs
L02 [4] = test: Hepatoprotective activity against concanavalin A induced human HL7702 cell apoptosis assessed as nuclear morphological changes at 5 uM preincubated for 12 hrs followed by concanavalin A stimulation for 12 hrs by Hoechst 33342 staining based fluorescence microscopy; format: functional; conditions: time 24.0 hrs
L02 [5] = test: Hepatoprotective activity against concanavalin A induced human HL7702 cell apoptosis assessed as decrease in Bax expression level at 5 uM preincubated for 12 hrs followed by concanavalin A stimulation for 12 hrs by Western blot analysis; format: functional, cell-based; conditions: time 24.0 hrs
L02 [6] = test: Hepatoprotective activity against concanavalin A induced human HL7702 cell apoptosis assessed as decrease in cleaved caspase-3 level at 5 uM preincubated for 12 hrs followed by concanavalin A stimulation for 12 hrs by Western blot analysis; format: functional, cell-based; conditions: time 24.0 hrs
L02 [7] = test: Hepatoprotective activity against concanavalin A induced livery injury in human HL7702 cells assessed as decrease in JAK2 phosphorylation level at 5 uM preincubated for 12 hrs followed by concanavalin A stimulation for 12 hrs by Western blot analysis; format: functional, cell-based; conditions: time 24.0 hrs
L02 [8] = test: Hepatoprotective activity against concanavalin A induced livery injury in human HL7702 cells assessed as increase in HO-1 expression level at 5 uM preincubated for 12 hrs followed by concanavalin A stimulation for 12 hrs by Western blot analysis; format: functional, cell-based; conditions: time 24.0 hrs
L02 [9] = test: Hepatoprotective activity against concanavalin A induced livery injury in human HL7702 cells assessed as decrease in STAT3 phosphorylation level at 5 uM preincubated for 12 hrs followed by concanavalin A stimulation for 12 hrs by Western blot analysis; format: functional, cell-based; conditions: time 24.0 hrs
Mus musculus [10] = test: Hepatoprotective activity against concanavalin A induced C57BL/6 mouse livery injury model assessed as decrease in STAT3 phosphorylation level at 5 mg/kg, ip once daily for 2 weeks followed by concanavalin A stimulation and measured after 12 hrs by Western blot analysis; format: functional, organism-based
Mus musculus [11] = test: Hepatoprotective activity against concanavalin A induced C57BL/6 mouse livery injury model assessed as decrease in Bax level at 5 mg/kg, ip once daily for 2 weeks followed by concanavalin A stimulation and measured after 12 hrs by Western blot analysis; format: functional, organism-based
Mus musculus [12] = test: Hepatoprotective activity against concanavalin A induced C57BL/6 mouse livery injury model assessed as decrease in cleaved caspase-3 level in liver at 5 mg/kg, ip once daily for 2 weeks followed by concanavalin A stimulation and measured after 12 hrs by DAB staining based immunohistological anlaysis; format: functional, organism-based
Mus musculus [13] = test: Hepatoprotective activity against concanavalin A induced C57BL/6 mouse livery injury model assessed as decrease in severity of liver damage at 5 mg/kg, ip once daily for 2 weeks followed by concanavalin A stimulation and measured after 12 hrs by H&E staining based […]; format: functional, organism-based
L02 [14] = test: Hepatoprotective activity against concanavalin A induced livery injury in human HL7702 assessed as decrease in IL-6 expression level at 5 uM preincubated for 12 hrs followed by concanavalin A stimulation for 12 hrs by Western blot analysis; format: functional, cell-based; conditions: time 24.0 hrs
Mus musculus [15] = test: Hepatoprotective activity against concanavalin A induced C57BL/6 mouse livery injury model assessed as decrease in serum ALT level at 5 mg/kg, ip once daily for 2 weeks followed by concanavalin A stimulation and measured after 12 hrs; format: functional, organism-based
L02 [16] = test: Hepatoprotective activity against concanavalin A induced livery injury in human HL7702 assessed as decrease in IL-6 expression level at 5 uM preincubated for 24 hrs followed by concanavalin A stimulation for 12 hrs by ELISA assay; format: functional, cell-based; conditions: time 36.0 hrs
Mus musculus [17] = test: Hepatoprotective activity against concanavalin A induced C57BL/6 mouse livery injury model assessed as decrease in phosphorylated STAT3 level in liver at 5 mg/kg, ip once daily for 2 weeks followed by concanavalin A stimulation and measured after 12 hrs by DAB staining based immunohistological anlaysis; format: functional, organism-based
Mus musculus [18] = test: Hepatoprotective activity against concanavalin A induced C57BL/6 mouse livery injury model assessed as decrease in serum AST level at 5 mg/kg, ip once daily for 2 weeks followed by concanavalin A stimulation and measured after 12 hrs; format: functional, organism-based
Mus musculus [19] = test: Hepatoprotective activity against concanavalin A induced C57BL/6 mouse livery injury model assessed as decrease in serum IL-6 level at 5 mg/kg, ip once daily for 2 weeks followed by concanavalin A stimulation and measured after 12 hrs by ELISA; format: functional, organism-based
Mus musculus [20] = test: Hepatoprotective activity against concanavalin A induced C57BL/6 mouse livery injury model assessed as decrease in cleaved caspase 3 level at 5 mg/kg, ip once daily for 2 weeks followed by concanavalin A stimulation and measured after 12 hrs by Western blot analysis; format: functional, organism-based
Mus musculus [21] = test: Hepatoprotective activity against concanavalin A induced C57BL/6 mouse livery injury model assessed as increase in Bcl-2 level at 5 mg/kg, ip once daily for 2 weeks followed by concanavalin A stimulation and measured after 12 hrs by Western blot analysis; format: functional, organism-based
Mus musculus [22] = test: Hepatoprotective activity against concanavalin A induced C57BL/6 mouse livery injury model assessed as decrease in JAK2 phosphorylation level at 5 mg/kg, ip once daily for 2 weeks followed by concanavalin A stimulation and measured after 12 hrs by Western blot analysis; format: functional, organism-based

## COc1cc2c(c(OC)c1OC)-c1c(c(Cl)c(OC)c(OC)c1OC(=O)c1ccc(C(F)(F)F)cc1)CC(C)C(C)C2 (stereo unspecified)
L02 [1]
  viability at 5 µM: 61.8%

## COc1c(Cl)c2c(c(OC)c1OC)-c1c(c(Cl)c(OC)c(OC)c1OCCCOC(=O)C(CCSC)NC(=O)OC(C)(C)C)CC(C)C(C)C2 (stereo unspecified)
L02 [2]
  Activity: Non-Toxic
L02 [3]
  Activity: Active
L02 [1]
  viability at 5 µM: 90.8%
L02 [4]
  Activity: Active
L02 [5]
  Activity: Active
L02 [6]
  Activity: Active

## COc1c(Cl)c2c(c(OC)c1OC)-c1c(c(Cl)c(OC)c(OC)c1OC(=O)/C=C/c1ccccc1)CC(C)C(C)C2 (stereo unspecified)
L02 [2]
  Activity: Non-Toxic
L02 [3]
  Activity: Active
L02 [1]
  viability at 5 µM: 89.7%
L02 [4]
  Activity: Active
L02 [5]
  Activity: Active
L02 [7]
  Activity: Active
L02 [8]
  Activity: Active
L02 [9]
  Activity: Active
L02 [6]
  Activity: Active

## COc1c(Cl)c2c(c(OC)c1OC)-c1c(c(Cl)c(OC)c(OC)c1OC(=O)c1cccnc1)CC(C)C(C)C2 (stereo unspecified)
L02 [1]
  viability at 5 µM: 79.4%

## COc1cc2c(c(OC)c1OC)-c1c(O)c(OC)c(OC)c(Cl)c1CC(C)C(C)C2 (stereo unspecified)
L02 [1]
  viability at 5 µM: 72.5%

## COc1cc2c(c(OC)c1OC)-c1c(O)c(OC)c(OC)c([N+](=O)[O-])c1CC(C)C(C)C2 (stereo unspecified)
L02 [1]
  viability at 5 µM: 70.2%

## COc1c(Cl)c2c(c(OC)c1OC)-c1c(c(Cl)c(OC)c(OC)c1OC(=O)c1ccc(C(F)(F)F)cc1)CC(C)C(C)C2 (stereo unspecified)
L02 [1]
  viability at 5 µM: 65.1%

## COC1=C(OC)C(OC)CC2=C1c1c(c([N+](=O)[O-])c(OC)c(OC)c1OCCCO)CC(C)C(C)C2 (stereo unspecified)
L02 [1]
  viability at 5 µM: 73.1%

## COc1c(Cl)c2c(c(OC)c1OC)-c1c(c(Cl)c(OC)c(OC)c1OC(=O)c1ccc(Cl)cc1Cl)CC(C)C(C)C2 (stereo unspecified)
L02 [1]
  viability at 5 µM: 68%

## COc1cc2c(c(OC)c1OC)-c1c(c(Cl)c(OC)c(OC)c1OCCCOC(=O)/C=C/c1ccccc1)CC(C)C(C)C2 (stereo unspecified)
L02 [1]
  viability at 5 µM: 71%

## COc1cc2c(c(OC)c1OC)-c1c(O)c(OC)c(OC)c(N)c1CC(C)C(C)C2 (stereo unspecified)
L02 [2]
  Activity: Non-Toxic
L02 [3]
  Activity: Active
L02 [1]
  viability at 5 µM: 97.1%
L02 [4]
  Activity: Active
L02 [5]
  Activity: Active
L02 [6]
  Activity: Active

## COc1c(O)c2c(c(Cl)c1OC)CC(C)C(C)Cc1c(Cl)c(OC)c(OC)c(OC)c1-2 (stereo unspecified)
L02 [1]
  viability at 5 µM: 67.3%

## COc1cc2c(c(OC)c1OC)-c1c(c(Cl)c(OC)c(OC)c1OC(=O)CCl)CC(C)C(C)C2 (stereo unspecified)
L02 [1]
  viability at 5 µM: 68.4%

## COc1c(Cl)c2c(c(OC)c1OC)-c1c(c(Cl)c(OC)c(OC)c1OCCCO)CC(C)C(C)C2 (stereo unspecified)
L02 [1]
  viability at 5 µM: 67.1%

## COc1c(Cl)c2c(c(OC)c1OC)-c1c(c(Cl)c(OC)c(OC)c1OS(=O)(=O)Cc1ccccc1)CC(C)C(C)C2 (stereo unspecified)
L02 [1]
  viability at 5 µM: 71.4%

## COc1cc2c(c(OC)c1OC)-c1c(c([N+](=O)[O-])c(OC)c(OC)c1OC(=O)/C=C/c1ccccc1)CC(C)C(C)C2 (stereo unspecified)
L02 [2]
  Activity: Non-Toxic
L02 [3]
  Activity: Active
L02 [1]
  viability at 5 µM: 97.4%
L02 [4]
  Activity: Active
L02 [5]
  Activity: Active
L02 [6]
  Activity: Active

## COc1ccc(C(=O)Oc2c(OC)c(OC)c(Cl)c3c2-c2c(cc(OC)c(OC)c2OC)CC(C)C(C)C3)cc1 (stereo unspecified)
L02 [1]
  viability at 5 µM: 70%

## COc1c(Cl)c2c(c(OC)c1OC)-c1c(c(Cl)c(OC)c(OC)c1OC(=O)c1ccc([N+](=O)[O-])cc1)CC(C)C(C)C2 (stereo unspecified)
L02 [1]
  viability at 5 µM: 59.4%

## COc1cc2c(c(OC)c1OC)-c1c(c(Cl)c(OC)c(OC)c1OC(=O)c1cccnc1)CC(C)C(C)C2 (stereo unspecified)
L02 [2]
  Activity: Non-Toxic
L02 [3]
  Activity: Active
L02 [1]
  viability at 5 µM: 93.7%
L02 [4]
  Activity: Active
L02 [5]
  Activity: Active
L02 [7]
  Activity: Active
L02 [8]
  Activity: Active
L02 [9]
  Activity: Active
L02 [6]
  Activity: Active

## COc1cc2c(c(OC)c1OC)-c1c(c(N)c(OC)c(OC)c1OS(=O)(=O)c1ccc(C)cc1)CC(C)C(C)C2 (stereo unspecified)
L02 [2]
  Activity: Non-Toxic
L02 [3]
  Activity: Active
L02 [1]
  viability at 5 µM: 89%
L02 [4]
  Activity: Active
L02 [5]
  Activity: Active
L02 [6]
  Activity: Active

## COc1ccc(C(=O)Oc2c(OC)c(OC)c(Cl)c3c2-c2c(c(Cl)c(OC)c(OC)c2OC)CC(C)C(C)C3)cc1 (stereo unspecified)
L02 [1]
  viability at 5 µM: 53.6%

## COc1cc2c(c(OC)c1OC)-c1c(c(Cl)c(OC)c(OC)c1OC(=O)/C=C/c1ccccc1)CC(C)C(C)C2 (stereo unspecified)
Mus musculus [10]
  Activity: Active
Mus musculus [11]
  Activity: Active
Mus musculus [12]
  Activity: Active
L02 [2]
  Activity: Non-Toxic
Mus musculus [13]
  Activity: Active
L02 [3]
  Activity: Active
L02 [14]
  Activity: Active
L02 [1]
  viability at 5 µM: 110%
L02 [4]
  Activity: Active
Mus musculus [15]
  Activity: Active
L02 [5]
  Activity: Active
L02 [16]
  Activity: Active
Mus musculus [17]
  Activity: Active
Mus musculus [18]
  Activity: Active
L02 [7]
  Activity: Active
Mus musculus [19]
  Activity: Active
Mus musculus [20]
  Activity: Active
Mus musculus [21]
  Activity: Active
Mus musculus [22]
  Activity: Active
L02 [8]
  Activity: Active
L02 [9]
  Activity: Active
L02 [6]
  Activity: Active

## COc1cc2c(c(OC)c1OC)-c1c(c([N+](=O)[O-])c(OC)c(OC)c1OC(=O)c1cccnc1)CC(C)C(C)C2 (stereo unspecified)
L02 [1]
  viability at 5 µM: 49.9%

## COc1c(Cl)c2c(c(OC)c1OC)-c1c(c(Cl)c(OC)c(OC)c1OC(=O)c1cccs1)CC(C)C(C)C2 (stereo unspecified)
L02 [1]
  viability at 5 µM: 80.4%
